Laboratory results: paper PMC7226839, “Modulation of STAT3 Signaling, Cell Redox Defenses and Cell Cycle Checkpoints by β-Caryophyllene in Cholangiocarcinoma Cells: Possible Mechanisms Accounting for Doxorubicin Chemosensitization and Chemoprevention” (Cells, 2020)
Counter-ions that a name gives are not always drawn.

Experiments:
[1] = tested on: H69 noncancerous cholangiocytes; test: MTT cytotoxicity and combination assay; format: cell-based; conditions: for IC50: combination with 50 µM β-caryophyllene; for cytotoxicity: H69, 100 μM
Protocol: To perform the assay, the cells were grown for 24 h into 96-well microplates (2 × 10^4 cells/well), then treated with the test substances and incubated according to the applied protocol schedule [26]. At the end of incubation, the cytotoxicity was measured by the 3-[4,5-dimethylthiazol-2-yl] -2,5-diphenyl tetrazolium bromide (MTT) assay, using an Epoch Microplate Spectrophotometer (BioTek, AHSI, Milan Italy). At least three biologic replicates, in which each concentration was tested in triplicate, were made. Comparing the number of viable cells in each treatment respect to the vehicle control allows to measure a cell viability reduction. The effect of the treatment was considered as cytotoxic when at least a 30% lowering of cell viability occurred [59].
In the single long-term schedule, confluence cells were exposed to the test substances for 24 h and 72 h (Figure S1), then the cytotoxicity was measured by the MTT assay. Under the metronomic treatment, the cells were subjected to a short and/or repeated exposure of 2 h to the test substances (Figure S2), as follow: 1) single treatment, the cells were treated for 2 h, then washed and incubated for 72 h; 2) two-repeated treatments, the cells were exposed to the test substances for 2 h, then washed and incubated for functional recovery for further 2 h. After recovering, the cells were further treated with the test substances for 2 h, washed and incubated for 72 h. Finally, the cytotoxicity was measured by the MTT assay as described above.
RR represents the cytotoxicity enhancement ratio and allows to quantify the efficacy increase of a drug (A) in the presence of a chemosensitizing agent (B), by relating the IC50 of A alone (CA) and that of IC50 of its combination with B (CA+B).

[2] = tested on: γH2AX in Mz-ChA-1 cholangiocarcinoma cells; test: Western blotting of phosphorylated H2AX (Ser139); format: cell-based, human; conditions: for increase in γH2AX levels compared the control: doxorubicin 20 µM
Protocol: (§2) To perform the analysis, the cells were seeded in 6-well plates, then subjected to the treatment with β-caryophyllene (50 µM) and doxorubicin (20 µM), alone and in combination, for the required time exposure, then harvested by centrifugation and washed in PBS. A lysis buffer, containing SDS (2% w/w), Tris-hydrochloride (20 mM; pH 7.4), urea (2 M), glycerol (10% w/w), sodium orthovanadate (2 mM), DTT (10 mM) and a protease inhibitors cocktail (1:100 dilution) was used to achieve the cell protein separation. The separated proteins were resolved by SDS-PAGE 10% TGX FastCast™ Acrylamide gel (BioRad, Segrate, Italy) and transferred on PVDF membranes (BioRad, Segrate, Italy) by using a Trans-Blot® Turbo™ Transfer System (BioRad, Segrate, Italy). The membranes were blocked with a 0.2% w/v I-block (Thermo Fisher Scientific, Rodano, Italy) in Tris-buffered saline containing 0.05% Tween-20 (TBS-T), then stained with the desired primary antibodies. […] After rinsing three times in TBS-T to remove unbound primary antibody, the membranes were incubated for an additional hour with the appropriate horseradish peroxidase- or alkaline phosphatase-conjugated secondary antibody (Jackson ImmunoResearch, Pero, Italy). […] Each experiment was performed at least in three replicates.

[3] = tested on: ROS in Mz-ChA-1 cholangiocarcinoma cells; test: Intracellular ROS determination (DCFH-DA); format: cell-based, human; conditions: β-caryophyllene 50 µM, doxorubicin 20 µM
Protocol: To perform the assay, the cells, seeded in 6-well plates (1 × 10^6 cells/well), were treated with the tested substances (β-caryophyllene, 50 µM; doxorubicin, 20 µM) for the required time exposure, then the ROS levels were measured in the pellets by the 2,7-dichlorofluorescein diacetate assay (DCFH-DA), as previously reported. […] In each experiment, a vehicle control, corresponding to a basal ROS level, were included too. For all the treatments, the mean DCF fluorescence of 50,000 cells was determined by a BD Accuri^TM C6 Software version 1.0.264.21 (BD Biosciences, Milan, Italy).

[4] = tested on: glutathione in H69 noncancerous cholangiocytes; test: HPLC determination of intracellular GSH and GSSG; format: cell-based; conditions: H69, 24 h
Protocol: Intracellular levels of reduced (GSH) and oxidized (GSSG) glutathione were measured by HPLC-UV, as previously described. Briefly, after treatments with β-caryophyllene (50 µM) and doxorubicin (20 µM), the harvested cells (1 × 10^6 cells) were suspended in 10% ice-cold TCA and centrifuged for 15 min at 9000× g, then supernatant was collected and GSH and GSSG measured by HPLC with UV detection at 215 nm. The separation was achieved using a InfinityLab poroshell 120 EC-C18 column (3 × 150 mm, 2.7 μm) at a flow rate of 0.8 mL/min, using the following elution gradient: 0–3 min 100% A + 0% B, 3–10 min from 100% A to 100% B. The mobile phase A contained 0.1% trifluoroacetic acid in water, whereas mobile phase B was 0.1% trifluoroacetic acid in water/acetonitrile (93:7). Under our chromatographic conditions, retention times of GSH and GSSG were 2.58 min and 7.01 min, respectively.

[5] = tested on: Mz-ChA-1 cholangiocarcinoma cells; test: Annexin-V-Cy3/CFDA flow cytometry (apoptotic and viable cells); format: cell-based, human; conditions: for inhibition of viable cells (CF fluorescence): Mz-ChA-1, 2 h and 24 h, maximum
Protocol: (§1) Apoptosis extent was evaluated by Annexin-V staining (Annexin V Apoptosis detection kit, Santa Cruz Biotechnology, DBA, Milan, Italy), which is known to specifically binds phosphatidylserine, a […] which is normally embedded in the inner leaflet of plasma membrane and externalized during apoptosis, as a result of the membrane changes. Therefore, apoptotic cells can be directly detected through their staining with the fluorochrome-conjugated Annexin V. The analysis was performed by both fluorescence microscopy and flow cytometry in order to both visualize the event and to achieve a quick and accurate quantification of apoptotic cells.
For flow cytometry analysis, the cells (1 × 10^6 cells) were grown in 6-well plates, treated with β-caryophyllene (50 µM) and doxorubicin (20 µM), alone and in combination for the required time exposure, then collected by trypsinization and resuspended in PBS in the presence of the fluorochrome Annexin-V-Cy3 (4 μg/mL in cell suspension). In order to detect viable cells, the nonfluorescent probe carboxyfluorescein diacetate (CFDA; 2 μg/mL in cell suspension), hydrolyzed in living cells by esterases to its fluorescent carboxyfluorescein metabolite (CF), was included too. For each sample, the mean fluorescence of Annexin-V-Cy3 (excitation/emission at 543/570 nm, respectively) and CF (excitation/emission at 492/514 nm, respectively) in 50,000 cells was measured using a BD Accuri^TM C6 flow cytometer, FL-2 and FL-1 channels respectively (BD Biosciences, Milan, Italy). Although standard flow cytometry apoptosis assays use Annexin V-FITC, we chosen the conjugate with Cy3 in order to avoid the overlapping in the excitation wavelength of annexin V-FITC and CF, which could interfere with the analysis. Cells undergoing apoptosis were also sorted by their typical forward- and side scatter (FSC-SSC) pattern, i.e., increased SSC and decreased FSC, respect to the viable cells. Multiparameter analysis and gating of forward and side scatter as well as fluorescence detection were performed using a BD Accuri^TM C6 Software version 1.0.264.21 (BD Biosciences, Milan, Italy).

[6] = tested on: H69 noncancerous cholangiocytes; test: Annexin-V-FITC fluorescence microscopy, semiquantitative; format: cell-based; conditions: H69, 24 h, β-caryophyllene 50 µM, doxorubicin 20 µM
Protocol: as §1

[7] = tested on: phospho(Tyr705)-STAT3 in H69 cholangiocytes; test: Western blotting of phospho(Tyr705)-STAT3; format: cell-based; conditions: for enhancement of basal phospho(Tyr705)-STAT3 expression: doxorubicin 20 µM
Protocol: as §2

[8] = H69, double repeated 2 h exposure + 72 h recovery
[9] = H69, single 2 h exposure + 72 h recovery

SMILES: C=C1CC/C=C(\C)CC[C@@H]2[C@@H]1CC2(C)C [β-Caryophyllene, β-caryophyllene]
- IC50 ([1]; 24 h, H69, 24 h exposure): 148 µM
- IC50 ([1]; 72 h, H69, 72 h exposure): 146 µM
- maximum cytotoxicity increase, long-term compared metronomic treatments (IC50) ([1]; H69): about 1.2 fold
- reduction of cell viability ([1]; H69, 50 μM): lower than 20%
- inhibition of cell viability vs. control ([1]; H69, 125 μM, 24 h and 72 h): about 40%
- effect on cell proliferation ([1]; H69, 125 μM, metronomic schedules): without affecting cell proliferation
- IC50 [1, 8]: 161 µM
- IC50 [1, 9]: 177 µM
- effect on γH2AX levels ([2]; Mz-ChA-1, 50 µM, 2 h and 24 h): null effects
- increase of ROS levels with respect to the control ([3]; Mz-ChA-1, 2 h): about 1.6 fold
- increase of ROS levels with respect to the control ([3]; Mz-ChA-1, 24 h): ~1.2 fold
- change in the amount of GSSG [4]: slightly increased
- basal GSH/GSSG ratio ([4]; β-caryophyllene 50 µM): retained
- enhancement of GSH ([4]; β-caryophyllene 50 µM): ~1.5 fold
- inhibition of viable cells (CF fluorescence) [5]: about 1.2 fold
- effect on basal apoptosis (annexin-V-Cy3) ([5]; Mz-ChA-1, β-caryophyllene 50 µM): did not affected the basal apoptosis
- Annexin V H69 (semiquantitative apoptosis score) [6]: – (0%–5% = negative)
- effect on phospho(Tyr705)-STAT3 expression ([7]; H69, β-caryophyllene 50 µM alone): did not affected the protein expression

SMILES: COc1cccc2c1C(=O)c1c(O)c3c(c(O)c1C2=O)C[C@@](O)(C(=O)CO)C[C@@H]3O[C@H]1C[C@H](N)[C@H](O)[C@H](C)O1 [Doxorubicin, doxorubicin hydrochloride]
- IC50 ([1]; 24 h, H69, 24 h exposure): 13.6 µM
- IC50 ([1]; 72 h, H69, 72 h exposure): 4 µM
- IC50 reduction, double short exposure compared the single one ([1]; H69): 1.5 fold
- cytotoxicity lowering, double repeated metronomic vs 24 h exposure (IC50) ([1]; H69): ~3 fold
- cytotoxicity lowering, single metronomic vs 24 h exposure (IC50) ([1]; H69): ~7 fold
- fold more toxic after 72 h with respect to 24 h (IC50 comparison) ([1]; H69): about 3 fold
- inhibition of cell viability ([1]; H69, 10 µM, 24 h): about 40%
- fold more toxic than the 24 h protocol ([1]; H69, 10 µM, 72 h): 2 fold
- maximal cytotoxicity ([1]; H69, 10 µM, 72 h): about 80%
- cytotoxicity ([1]; double repeated 2 h exposure): ~70%
- cytotoxicity ([1]; single 2 h exposure): about 60%
- maximum inhibition of cell viability ([1]; H69, 200 µM, 24 h): about 80%
- IC50 [1, 8]: 54.4 µM
- fold safer than the long-term exposures of 72 h ([1]; H69, metronomic schedules): about 100 fold
- nontoxic up to (concentration) ([1]; H69, metronomic schedules): up to 20 μM
- IC50 [1, 9]: 81.8 µM
- increase in γH2AX levels compared the control ([2]; Mz-ChA-1, 2 h): about 60 fold
- increase in γH2AX levels compared the control ([2]; Mz-ChA-1, 24 h): ~140 fold
- increase of ROS levels with respect to the control ([3]; Mz-ChA-1, 2 h): ~7 fold
- increase of ROS levels with respect to the control ([3]; Mz-ChA-1, 24 h): ~4 fold
- change in the amount of GSSG [4]: slightly but not significantly reduced
- depletion of GSH [4]: ~2 fold
- lowering of basal GSH/GSSG ratio [4]: ~1.6 fold
- inhibition of viable cells (CF fluorescence) [5]: up to 1.5 fold
- increase of apoptotic rate vs the basal rate in the control ([5]; Mz-ChA-1, 24 h): ~3 fold
- Annexin V H69 (semiquantitative apoptosis score) [6]: + (11%–30% = +)
- enhancement of basal phospho(Tyr705)-STAT3 expression ([7]; H69, 2 h): ~6 fold
- enhancement of basal phospho(Tyr705)-STAT3 expression ([7]; H69, 24 h): ~10 fold
